The target in data set [1] is T1, S1P1 receptor (Homo sapiens, UniProt P21453).
T1 construct: expressed in transfected cells; host or cells: CHO cells
Briefly: General S1P1 receptor agonist activity, CHO cells expressing S1P1 receptor (method of Experimental Example 1 of PTL 1). In kind it is cell-based. To be noted: method of PTL 1. An excerpt: As a general method for evaluating an S1P1 receptor agonist activity, there has been known a method which uses CHO cells expressing a S1P1 receptor, and the like to measure an agonist activity on the basis of binding to the receptor and a signal transduction activity through the binding (PTL 1).

In data set [2] the target is T2, S1P1 receptor coupled to Gαi1 (Homo sapiens, UniProt P21453).
T2 construct: expressed in transfected cells; host or cells: HEK 293T cells
T2 sequence (P21453 whole entry): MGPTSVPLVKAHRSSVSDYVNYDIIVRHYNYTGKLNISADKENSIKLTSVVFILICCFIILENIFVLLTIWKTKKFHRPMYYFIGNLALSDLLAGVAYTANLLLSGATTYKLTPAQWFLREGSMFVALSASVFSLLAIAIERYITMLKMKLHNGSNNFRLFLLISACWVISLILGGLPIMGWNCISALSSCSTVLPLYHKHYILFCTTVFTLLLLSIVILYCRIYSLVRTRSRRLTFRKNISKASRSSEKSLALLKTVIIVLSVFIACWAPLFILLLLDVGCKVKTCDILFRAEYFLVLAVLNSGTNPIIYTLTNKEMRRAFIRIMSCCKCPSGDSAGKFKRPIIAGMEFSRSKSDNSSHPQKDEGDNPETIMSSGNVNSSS
T2 sequence (P63096 2-354 partner limits assumed): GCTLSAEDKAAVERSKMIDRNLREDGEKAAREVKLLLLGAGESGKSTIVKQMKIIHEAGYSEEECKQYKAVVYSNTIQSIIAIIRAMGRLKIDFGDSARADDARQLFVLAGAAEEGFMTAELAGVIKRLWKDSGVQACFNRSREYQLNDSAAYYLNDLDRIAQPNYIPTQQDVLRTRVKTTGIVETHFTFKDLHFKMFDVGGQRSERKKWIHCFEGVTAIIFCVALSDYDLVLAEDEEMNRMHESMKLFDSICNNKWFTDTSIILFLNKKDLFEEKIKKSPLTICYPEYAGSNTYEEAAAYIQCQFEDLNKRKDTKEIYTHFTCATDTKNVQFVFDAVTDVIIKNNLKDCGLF
T2 sequence (P62873 2-340 partner limits assumed): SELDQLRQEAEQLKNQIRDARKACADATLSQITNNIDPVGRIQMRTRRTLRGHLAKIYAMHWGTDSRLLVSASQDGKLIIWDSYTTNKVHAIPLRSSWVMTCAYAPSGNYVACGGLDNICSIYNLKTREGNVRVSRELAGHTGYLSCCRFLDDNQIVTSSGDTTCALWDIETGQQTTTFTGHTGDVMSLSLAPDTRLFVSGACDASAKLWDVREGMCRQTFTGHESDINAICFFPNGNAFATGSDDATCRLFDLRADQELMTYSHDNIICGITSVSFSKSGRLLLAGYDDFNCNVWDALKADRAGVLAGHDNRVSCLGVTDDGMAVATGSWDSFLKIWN
T2 sequence (P59768 2-68 partner limits assumed): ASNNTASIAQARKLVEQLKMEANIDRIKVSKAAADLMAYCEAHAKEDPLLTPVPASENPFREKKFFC
The data set can be described thus: Gα subtype-specific S1P1 receptor agonist activity (BRET, NPL 7), HEK 293T cells co-expressing S1P1 receptor, Gαi1, Gγ2 and Gβ1. It is filed as cell-based. To be noted: Gαi1 expressed. The source says:
(§1) In the present invention, an agonist activity specific to a Gαi subtype can be measured, for example, according to the method described in the present Example 1 (2) (the method described in NPL 7). To be more specific, by allowing cells to express an S1P1 receptor and a particular Gα subtype together with Gγ2 and Gβ1, an agonist activity can be measured on the basis of a difference in percentage between the Gα protein and the Gβγ protein caused by an S1P1 receptor agonist.
(§2) Next, the Gα protein subtype-specific S1P1 receptor agonist activities were evaluated according to the method described in NPL 7. Note that the expression conditions followed the section of “Supplementary Methods” in NPL 7, and the measurement conditions followed the section of “Bioluminescence resonance energy transfer measurement.”
(§3) First, HEK 293T cells were allowed to co-express an S1P1 receptor, a particular Gα subtype (Gαi1, Gαi2, or Gαi3), Gγ2, and Gβ1. Then, on the basis of a difference in percentage between the Gα protein and the Gβγ protein caused by the endogenous agonist S1P, the agonist activity was measured.
In general terms: Bioluminescence resonance energy transfer reports proximity on the nanometre scale.

Data set [3] deals with T3, S1P1 receptor coupled to Gαi2 (Homo sapiens, UniProt P21453).
T3 construct: expressed in transfected cells; host or cells: HEK 293T cells
T3 sequence (P21453 whole entry): as the sequence (P21453 whole entry) above
T3 sequence (P04899 2-355 partner limits assumed): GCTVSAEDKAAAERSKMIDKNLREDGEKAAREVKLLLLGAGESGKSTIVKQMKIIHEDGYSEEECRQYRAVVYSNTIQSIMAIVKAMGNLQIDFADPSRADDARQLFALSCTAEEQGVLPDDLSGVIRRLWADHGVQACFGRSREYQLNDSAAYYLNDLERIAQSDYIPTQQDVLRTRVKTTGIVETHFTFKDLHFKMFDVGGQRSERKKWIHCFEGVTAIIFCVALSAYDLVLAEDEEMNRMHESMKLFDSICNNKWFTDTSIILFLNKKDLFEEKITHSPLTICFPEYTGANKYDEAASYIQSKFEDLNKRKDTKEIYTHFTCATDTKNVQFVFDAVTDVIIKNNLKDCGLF
T3 sequence (P62873 2-340 partner limits assumed): as the sequence (P62873 2-340 partner limits assumed) above
T3 sequence (P59768 2-68 partner limits assumed): as the sequence (P59768 2-68 partner limits assumed) above
The data set can be described thus: Gα subtype-specific S1P1 receptor agonist activity (BRET, NPL 7), HEK 293T cells co-expressing S1P1 receptor, Gαi2, Gγ2 and Gβ1. It is filed as cell-based. To be noted: Gαi2 expressed.
From the text: as §1, §2, §3

Data set [4] addresses T4, S1P1 receptor coupled to Gαi3 (Homo sapiens, UniProt P21453).
T4 construct: expressed in transfected cells; host or cells: HEK 293T cells
Briefly: Gα subtype-specific S1P1 receptor agonist activity (BRET, NPL 7), HEK 293T cells co-expressing S1P1 receptor, Gαi3, Gγ2 and Gβ1. Conditions: Gαi3 expressed. It is filed as cell-based.
From the text: as §1, §2, §3

For data set [5], the system named is number of lymphocytic cells in blood. The data set can be described thus: Efficacy evaluation: number of lymphocytic cells in blood after oral administration. It is filed as in vivo. To be noted: male SD rats; for ED50: Rattus norvegicus. The method, then: BAF312 or the compound B was orally administered to male SD rats at different doses. After 3, 6, and 24 hours, and the number of lymphocytic cells in blood was counted using a blood cell counter.

In data set [6] the test system is complete AV block. The data set can be described thus: Cardiotoxicity evaluation: AV block in guinea pigs under anesthesia. In kind it is in vivo, male guinea pigs. Conditions: anesthetized guinea pigs, 0.01 mg/kg by infusion for 10 minutes. As to the method:
(§4) In this model, the guinea pigs used were highly responsive to an S1P1 receptor, and further the model was capable of reliable detection of S1P1 receptor-dependent cardiotoxicity under anesthesia. An electrocardiograph and a pacing device were attached to the male guinea pigs whose breathings were artificially controlled under anesthesia, and the drugs were administered.

A short description of data set [7]: Blood concentration in the guinea pig cardiotoxicity model. It is filed as in vivo. To be noted: male, whole blood, intravenous, guinea pigs, 0.01 mg/kg infusion for 10 minutes. The method, then:
as §4
In addition, the blood concentrations of BAF312 and the compound B when the administrations were completed were respectively 17 nM and 91 nM. The blood concentrations after 1 hour were respectively <4 nM and 27 nM.

Data set [8] deals with S1P receptor. Conditions: reported generally, varies with evaluation method; read-out: 50% activation concentration (EC50 value) as an agonist activity against an S1P receptor; cited from earlier work.

Like-named read-outs stand apart in the source and are kept apart here.

T1 sequence (P21453 whole entry): as the sequence (P21453 whole entry) above
T4 sequence (P21453 whole entry): as above
T4 sequence (P08754 2-354 partner limits assumed): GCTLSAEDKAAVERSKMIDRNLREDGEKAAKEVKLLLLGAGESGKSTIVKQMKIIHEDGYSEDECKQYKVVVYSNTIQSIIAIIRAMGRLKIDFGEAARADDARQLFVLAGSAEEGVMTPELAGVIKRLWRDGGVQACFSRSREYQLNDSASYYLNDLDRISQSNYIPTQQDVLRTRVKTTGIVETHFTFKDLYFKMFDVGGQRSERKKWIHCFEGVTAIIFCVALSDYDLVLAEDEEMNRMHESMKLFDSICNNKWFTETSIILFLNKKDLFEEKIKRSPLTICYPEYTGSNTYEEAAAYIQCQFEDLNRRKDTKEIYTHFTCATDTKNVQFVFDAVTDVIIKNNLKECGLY
T4 sequence (P62873 2-340 partner limits assumed): as the sequence (P62873 2-340 partner limits assumed) above
T4 sequence (P59768 2-68 partner limits assumed): as the sequence (P59768 2-68 partner limits assumed) above

Regarding `CCc1cc(/C(C)=N/OCc2ccc(C3CCCCC3)c(C(F)(F)F)c2)ccc1CN1CC(C(=O)O)C1` [BAF312, Siponimod], the EC50 in data set [1] stood at 3 nM; in data set [2], 122 nM; in data set [3], 81 nM; in data set [4], 27 nM. For the same molecule, the ED50 (as a rule, the dose that gives a 50% effect, or the effect in half of the subjects) in data set [5] (6 hours, read-out: dose for suppressing the number of lymphocytic cells by 50% (ED50) after 6 hours) was 0.1 mg/kg; in data set [5] (24 hours, read-out: dose for suppressing the number of lymphocytic cells by 50% (ED50) after 24 hours) it was greater than 1 mg/kg. The “effective blood concentration after 24 hours” value in data set [5] (24 hours, calculated) is listed as greater than 208 nM. Besides, the “expression of complete AV block (cases)” value in data set [6] (four cases) was “four out of four cases”. In data set [6] (until 1 hour), the “continuation of complete AV block” value was “continued in all the cases until 1 hour elapsed”. In data set [7] (after 1 hour), this molecule had a concentration at 1 h of less than 4 nM. Besides, the concentration at 10 min in data set [7] (end of administration, read-out: blood concentration when the administration was completed) was determined as 17 nM.
Take `CCCCCCCCCCCCC/C=C/[C@@H](O)[C@@H](N)COP(=O)(O)O` [Compound S1P, sphingosine-1-phosphate]: the EC50 in data set [1] was 6.4 nM; in data set [2] it was 261 nM; in data set [3], 14.6 nM; in data set [4] it was 8.4 nM; in data set [8], roughly 10 nM.

(Values after patent US9885703B2, “Evaluation method and screening method for sphingosine-1-phosphate 1 (S1P1) receptor agonists” (MEIJI SEIKA PHARMA CO., LTD., priority 2013, dated 2018).)
